# In patent US20180282323A1, “Mesoionic imidazole derivatives as insecticides” (BAYER CROPSCIENCE AKTIENGESELLSCHAFT, priority 2015, published 2018):
# Legend:
# Boophilus microplus = Boophilus microplus injection test; type: in vivo; details: application rate 20 μg/animal, assessed after 7 days by laying of fertile eggs
# Description: Boophilus microplus—Injection Test Solvent: dimethyl sulphoxide
# To produce a suitable active ingredient formulation, 10 mg of active ingredient are mixed with 0.5 ml of solvent and the concentrate is diluted with solvent to the desired concentration.
# 1 μl of the active ingredient solution is injected into the abdomen of 5 engorged adult female cattle ticks (Boophilus microplus). The animals are transferred into dishes and kept in a climate-controlled room.
# Efficacy is assessed after 7 days by laying of fertile eggs. Eggs which are not visibly fertile are stored in a climate-controlled cabinet until the larvae hatch after about 42 days. An efficacy of 100% means that none of the ticks has laid any fertile eggs; 0% means that all the eggs are fertile.
# Myzus persicae [1] = test: Myzus persicae spray test (Chinese cabbage leaf discs); type: in vivo; details: application rate 500 g/ha, after 6 days
# Procedure, shortened: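 Active ingredient was formulated in acetone/DMF and diluted with water containing 1000 ppm emulsifier. Chinese cabbage leaf discs infested with all aphid stages were sprayed, and % kill was scored after 6 days (100% = all aphids dead).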
# Lucilia cuprina = Lucilia cuprina test; type: in vivo; details: application rate 100 ppm, L1 larvae, after 2 days
# Description: Lucilia cuprina Test Solvent: dimethyl sulphoxide
# To produce a suitable active ingredient formulation, 10 mg of active ingredient are mixed with 0.5 ml of dimethyl sulphoxide, and the concentrate is diluted with water to the desired concentration.
# About 20 L1 larvae of the Australian sheep blowfly (Lucilia cuprina) are transferred into a test vessel containing minced horsemeat and the active ingredient formulation of the desired concentration.
# After 2 days, the kill in % is determined. 100% means that all the larvae have been killed; 0% means that no larvae have been killed.
# [2] = log P by HPLC on reversed-phase column (EEC directive 79/831 Annex V.A8); type: physicochemical; details: for log p: HPLC on reversed-phase column (footnote a); for log p a): HPLC on reversed-phase column
# Procedure, shortened: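 Reversed-phase (C18) HPLC at 43° C, following EEC directive 79/831 Annex V.A8.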
# Myzus persicae [3] = test: Myzus persicae oral test; type: in vivo; details: application rate 20 ppm, oral uptake through parafilm, after 5 days
# Procedure, shortened: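 Oral feeding format: mixed-stage Myzus persicae imbibe acetone/water compound formulation in sugared IPL41 medium through parafilm. Efficacy assessed as percent aphids killed at day 5.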
# Phaedon cochleariae = Phaedon cochleariae spray test; type: in vivo; details: application rate 500 g/ha, Chinese cabbage leaf discs, larvae, after 7 days
# Description: Phaedon cochleariae—Spray Test Solvent: 78.0 parts by weight of acetone • • 1.5 parts by weight of dimethylformamide Emulsifier: alkylaryl polyglycol ether
# (§1) To produce a suitable active ingredient formulation, 1 part by weight of active ingredient is dissolved with the stated parts by weight of solvent and made up with water containing an emulsifier concentration of 1000 ppm until the desired concentration is attained. To produce further test concentrations, the formulation is diluted with emulsifier-containing water.
# Discs of Chinese cabbage leaves (Brassica pekinensis) are sprayed with an active ingredient formulation of the desired concentration and, after drying, populated with larvae of the mustard beetle (Phaedon cochleariae).
# After 7 days, the efficacy in % is determined. 100% means that all the beetle larvae have been killed; 0% means that no beetle larvae have been killed.
# Diabrotica balteata = Diabrotica balteata spray test; type: in vivo; details: application rate 160 μg/well, wheat grains with beetle larvae, after 7 days
# Description: Diabrotica balteata—Spray Test Solvent: 78 parts by weight of acetone • • 1.5 parts by weight of dimethylformamide Emulsifier: alkylaryl polyglycol ether
# as §1
# Pre-swollen wheat grains (Triticum aestivum) are incubated in a multiwell plate filled with agar and a little water for one day (5 seed grains per cavity). The germinated wheat grains are sprayed with an active ingredient formulation of the desired concentration. Subsequently, each cavity is infected with 10-20 beetle larvae of Diabrotica balteata.
# After 7 days, the efficacy in % is determined. 100% means that all wheat plants have grown as in the untreated, uninfected control; 0% means that no wheat plant has grown.
# Ctenocephalides felis = Ctenocephalides felis in vitro contact test with adult cat fleas; type: in vivo; details: application rate 5 μg/cm^2, after 48 h, adult cat fleas dead or moribund
# Description: Ctenocephalides felis—In Vitro Contact Tests with Adult Cat Fleas
# For the coating of the test tubes, 9 mg of active ingredient are first dissolved in 1 ml of acetone p.a. and then diluted to the desired concentration with acetone p.a. 250 μl of the solution are distributed homogeneously on the inner walls and the base of a 25 ml test tube by turning and rocking on an orbital shaker (rocking rotation at 30 rpm for 2 h). With 900 ppm of active ingredient solution and internal surface area 44.7 cm^2, given homogeneous distribution, an area-based dose of 5 μg/cm^2 is achieved.
# After the solvent has evaporated off, the tubes are populated with 5-10 adult cat fleas (Ctenocephalides felis), sealed with a perforated plastic lid and incubated in a horizontal position at room temperature and ambient humidity. After 48 h, efficacy is determined. To this end, the test tubes are stood upright and the fleas are knocked to the base of the tube. Fleas which remain motionless at the base or move in an uncoordinated manner are considered to be dead or moribund.
# 100% efficacy means that all the fleas were dead or moribund. 0% efficacy means that no fleas were harmed.
# Meloidogyne incognita = Meloidogyne incognita test; type: in vivo; details: application rate 20 ppm, formation of galls on lettuce after 14 days
# Description: Meloidogyne incognita Test Solvent: 125.0 parts by weight of acetone
# To produce a suitable preparation of active ingredient, 1 part by weight of active ingredient is mixed with the stated amount of solvent and the concentrate is diluted with water to the desired concentration.
# Vessels are filled with sand, active ingredient solution, an egg/larvae suspension of the southern root-knot nematode (Meloidogyne incognita) and lettuce seeds. The lettuce seeds germinate and the plants develop. The galls develop on the roots.
# After 14 days, the nematicidal efficacy in % is determined by the formation of galls. 100% means that no galls were found; 0% means that the number of galls on the treated plants corresponds to the untreated control.
# Myzus persicae [4] = test: Myzus persicae spray test (bell pepper plants); type: in vivo; details: application rate 100 ppm, after 6 days
# Description: Myzus persicae—Spray Test Solvent: 14 parts by weight of dimethylformamide Emulsifier: alkylaryl polyglycol ether
# as §1, with “water. If the addition of ammonium salts or/and penetrants is required, these are each added in a concentration of 1000 ppm to the formulation solution.” for “water.”
# Bell pepper plants (Capsicum annuum) severely infested with the green peach aphid (Myzus persicae) are treated by spraying with the active ingredient formulation in the desired concentration.
# After 6 days, the kill in % is determined. 100% means that all of the aphids have been killed; 0% means that none of the aphids have been killed.
Structure (SMILES),efficacy (Boophilus microplus) [%],efficacy (Myzus persicae [1]) [%],efficacy (kill in %) (Lucilia cuprina) [%],log p [2],efficacy (Myzus persicae [3]) [%],efficacy (Phaedon cochleariae) [%],efficacy (Diabrotica balteata) [%],efficacy (Ctenocephalides felis) [%],nematicidal efficacy (Meloidogyne incognita) [%],efficacy (kill in %) (Myzus persicae [4]) [%],log p a) [2]
Cc1cnn(CC(=O)c2c([O-])n(Cc3cnc(Cl)s3)c3cccc[n+]23)c1 [Example I-1-049],80,90,100,1.72,100,,,,,,
COCC(=O)c1c([O-])n(Cc2cnc(Cl)s2)c2c(C)ccc[n+]12 [Example I-1-082],,100,,1.46,100,100,100,100,,,
CCOCC(=O)c1c([O-])n(Cc2cnc(Cl)s2)c2c(C)ccc[n+]12 [Example I-1-083],,90,,1.72,100,100,100,,,,
Cc1ccc[n+]2c(C(=O)Cn3ccc(Cl)n3)c([O-])n(Cc3cnc(Cl)s3)c12 [Example I-1-093],,,,2.23,100,100,,,,,
COc1cnn(CC(=O)c2c([O-])n(Cc3cnc(Cl)s3)c3c(C)ccc[n+]23)c1 [Example I-1-094],,,,1.75,,100,,,,,
CCCOCC(=O)c1c([O-])n(Cc2cnc(Cl)s2)c2c(C)ccc[n+]12 [Example I-1-097],,90,,2.11,100,100,100,,,,
CCOCC(=O)c1c([O-])n(Cc2ccc(Cl)nc2)c2c(Cl)ccc[n+]12 [Example I-1-116],,,,1.78,100,,,,90,,
O=C(NCC1CC1)c1c([O-])n(Cc2cnc(Cl)s2)c2cccc[n+]12 [Example I-1-143],,,,1.99,,,100,100,90,,
CC(C)CNC(=O)c1c([O-])n(Cc2cnc(Cl)s2)c2cccc[n+]12 [Example I-1-147],,,,2.29,100,,100,80,90,100,
O=C(NC1CC1)c1c([O-])n(Cc2ccc(Cl)nc2)c2cccc[n+]12 [Example I-1-154],,,95,1.59,100,100,80,,,100,
CC(c1ccc(Cl)nc1)n1c([O-])c(C(=O)CCl)[n+]2ccccc12 (stereo not drawn) [Example I-1-161],,,,1.75,100,,,,90,,
Cc1ccc[n+]2c(C(=O)NCc3ccc(Cl)cc3)c([O-])n(Cc3ccc(Cl)nc3)c12 [Example I-1-176],,,,2.92,,,,,90,,
O=C(NC1CC1)c1c([O-])n(Cc2ccc(Cl)nc2)c2c(OC(F)(F)F)ccc[n+]12 [Example I-1-196],,,,2.33,,,,,90,,
CC(c1ccc(Cl)nc1)n1c([O-])c(C(=O)NC2CC2)[n+]2ccccc12 (stereo not drawn) [Example I-1-202],80,,100,,100,,80,,,90,1.75
Cc1ccccc1NC(=O)c1c([O-])n(Cc2cnc(Cl)s2)c2cccc[n+]12 [Example I-1-239],,,,,100,,,100,,,3.03
COc1ccc[n+]2c(C(=O)NC3CC3)c([O-])n(Cc3cnc(Cl)s3)c12 [Example I-1-240],,,,,100,,,100,,,1.96
Cc1ccc(Cn2c([O-])c(C(=O)NC3CC3)[n+]3ccccc23)cn1 [Example I-1-243],,,,,100,,,100,,,0.81
CC(c1cnc(Cl)s1)n1c([O-])c(C(=O)NC2CC2)[n+]2ccccc12 (stereo not drawn) [Example I-1-254],80,90,100,,100,,100,,,,1.94
COC(=O)c1c([O-])n(C(C)c2cnc(Cl)s2)c2cccc[n+]12 (stereo not drawn) [Example I-1-262],,,,,,83,,,,,1.45
Cc1ccc[n+]2c(C(=O)Nc3c(F)cccc3Cl)c([O-])n(Cc3cnc(Cl)s3)c12 [Example I-1-276],,90,,,100,,100,,90,,2.93
Cc1ccc[n+]2c(C(=O)Nc3c(Cl)cccc3Cl)c([O-])n(Cc3cnc(Cl)s3)c12 [Example I-1-277],,,,,100,83,100,,90,,3.11
O=C(Nc1c(Cl)cccc1Cl)c1c([O-])n(Cc2ccc(Cl)nc2)c2cccc[n+]12 [Example I-1-314],,100,,,100,,,,90,,2.59
O=C(Nc1c(F)cccc1Cl)c1c([O-])n(Cc2ccc(Cl)nc2)c2cccc[n+]12 [Example I-1-316],,100,,,100,,,,90,,2.44
Cc1cccc(C)c1NC(=O)c1c([O-])n(Cc2cnc(Cl)s2)c2cccc[n+]12 [Example I-1-321],,,,,100,,,,90,,2.76
COc1cccc(F)c1NC(=O)c1c([O-])n(Cc2cnc(Cl)s2)c2cccc[n+]12 [Example I-1-323],,,,,100,,,,90,,2.27
